Measured values reported in patent publication US11629155B2, “Small molecule antagonist compound TAC5 series having toll-like receptor 3/7/8/9 inhibitory function” (AJOU UNIVERSITY INDUSTRY-ACADEMIC COOPERATION FOUNDATION, priority 2018, dated 2023).

Columns and labels:
TLR1/2 = target: T1, TLR1/2 (Homo sapiens, UniProt O60603+Q15399); experiment: Pam3CSK4-induced TNF-α secretion (ELISA) in THP1-derived macrophages; assay type: cell-based; settings: 1 to 50 μM, FIG. 4D
T1 construct: endogenous in cells; host or cells: THP1-derived macrophages (PMA-differentiated)
T1 sequence (Q15399 25-786): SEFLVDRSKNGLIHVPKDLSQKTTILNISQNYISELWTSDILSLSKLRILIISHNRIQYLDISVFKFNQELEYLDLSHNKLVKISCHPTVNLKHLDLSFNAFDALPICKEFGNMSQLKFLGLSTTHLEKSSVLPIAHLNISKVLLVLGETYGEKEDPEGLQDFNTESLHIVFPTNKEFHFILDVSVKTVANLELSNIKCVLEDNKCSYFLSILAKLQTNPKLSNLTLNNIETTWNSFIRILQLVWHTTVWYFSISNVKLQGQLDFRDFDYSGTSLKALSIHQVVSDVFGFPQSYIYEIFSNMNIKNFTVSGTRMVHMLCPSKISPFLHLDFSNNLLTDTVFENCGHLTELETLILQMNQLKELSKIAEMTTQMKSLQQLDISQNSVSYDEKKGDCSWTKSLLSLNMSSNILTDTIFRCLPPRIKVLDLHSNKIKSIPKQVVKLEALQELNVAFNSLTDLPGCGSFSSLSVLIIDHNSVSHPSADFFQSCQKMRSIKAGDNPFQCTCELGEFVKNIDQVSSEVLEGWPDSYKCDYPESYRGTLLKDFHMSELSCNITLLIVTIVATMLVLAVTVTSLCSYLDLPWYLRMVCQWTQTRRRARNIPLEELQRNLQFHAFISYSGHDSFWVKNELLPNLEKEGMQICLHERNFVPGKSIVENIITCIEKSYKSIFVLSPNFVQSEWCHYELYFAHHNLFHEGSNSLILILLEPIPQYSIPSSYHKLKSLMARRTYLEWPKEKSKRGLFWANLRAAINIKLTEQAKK
T1 sequence (O60603 21-784): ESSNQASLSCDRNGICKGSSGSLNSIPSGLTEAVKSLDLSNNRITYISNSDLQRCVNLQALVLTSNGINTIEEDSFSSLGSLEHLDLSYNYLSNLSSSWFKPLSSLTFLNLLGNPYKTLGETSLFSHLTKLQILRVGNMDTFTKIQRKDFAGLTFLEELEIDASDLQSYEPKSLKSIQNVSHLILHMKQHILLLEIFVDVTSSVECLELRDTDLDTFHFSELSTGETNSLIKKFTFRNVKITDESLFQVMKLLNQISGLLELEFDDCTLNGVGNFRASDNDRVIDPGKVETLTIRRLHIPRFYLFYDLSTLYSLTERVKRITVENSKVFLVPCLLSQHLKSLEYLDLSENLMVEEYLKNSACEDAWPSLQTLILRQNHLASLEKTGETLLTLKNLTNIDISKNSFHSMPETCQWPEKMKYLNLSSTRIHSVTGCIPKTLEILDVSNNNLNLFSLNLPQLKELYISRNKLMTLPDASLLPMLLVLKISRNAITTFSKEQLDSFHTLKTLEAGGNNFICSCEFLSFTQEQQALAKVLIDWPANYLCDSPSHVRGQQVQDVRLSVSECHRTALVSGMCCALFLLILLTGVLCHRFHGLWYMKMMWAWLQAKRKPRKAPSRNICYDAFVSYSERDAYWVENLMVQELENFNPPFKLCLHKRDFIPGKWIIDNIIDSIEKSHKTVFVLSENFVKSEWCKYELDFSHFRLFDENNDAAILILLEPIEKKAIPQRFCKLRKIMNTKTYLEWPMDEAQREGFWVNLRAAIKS

TLR8 = target: T2, TLR8 (Homo sapiens, UniProt Q9NR97); experiment: TL8, R848 or CL075-induced TNF-α or IL-6 secretion in THP1-derived macrophages; assay type: cell-based; settings: TL8, R848 or CL075, dose-dependent manner, FIGS. 4E-4G
T2 construct: endogenous in cells; host or cells: THP1-derived macrophages (PMA-differentiated)
T2 sequence (Q9NR97 27-1041): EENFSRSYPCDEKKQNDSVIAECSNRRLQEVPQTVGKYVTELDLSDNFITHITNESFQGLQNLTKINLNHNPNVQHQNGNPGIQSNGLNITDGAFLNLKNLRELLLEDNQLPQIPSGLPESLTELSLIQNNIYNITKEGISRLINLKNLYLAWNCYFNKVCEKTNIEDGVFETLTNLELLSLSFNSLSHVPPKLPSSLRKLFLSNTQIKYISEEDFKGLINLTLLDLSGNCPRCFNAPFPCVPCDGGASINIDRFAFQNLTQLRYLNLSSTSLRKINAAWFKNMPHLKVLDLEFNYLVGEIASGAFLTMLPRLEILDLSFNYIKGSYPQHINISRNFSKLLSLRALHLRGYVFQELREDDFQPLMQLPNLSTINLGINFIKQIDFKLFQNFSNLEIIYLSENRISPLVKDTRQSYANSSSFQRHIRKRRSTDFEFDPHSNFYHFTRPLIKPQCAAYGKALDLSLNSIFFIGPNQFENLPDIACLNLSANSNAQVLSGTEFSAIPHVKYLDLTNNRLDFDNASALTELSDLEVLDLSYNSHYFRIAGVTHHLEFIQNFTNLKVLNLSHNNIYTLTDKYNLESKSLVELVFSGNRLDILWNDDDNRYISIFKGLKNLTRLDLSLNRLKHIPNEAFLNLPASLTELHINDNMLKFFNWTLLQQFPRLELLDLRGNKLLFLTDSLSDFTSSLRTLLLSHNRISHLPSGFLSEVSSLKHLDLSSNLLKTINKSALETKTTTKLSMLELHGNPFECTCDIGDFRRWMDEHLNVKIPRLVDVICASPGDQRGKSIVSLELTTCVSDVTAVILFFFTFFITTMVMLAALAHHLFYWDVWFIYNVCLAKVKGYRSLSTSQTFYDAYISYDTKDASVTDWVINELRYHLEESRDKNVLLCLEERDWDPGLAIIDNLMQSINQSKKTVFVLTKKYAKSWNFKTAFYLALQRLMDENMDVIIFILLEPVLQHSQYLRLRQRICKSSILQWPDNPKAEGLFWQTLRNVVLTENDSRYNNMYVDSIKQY

TLR9 = target: T3, TLR9 (Homo sapiens, UniProt Q9NR96); experiment: CpG ODN-induced TNF-α or IL-6 secretion in THP1-derived macrophages; assay type: cell-based; settings: dose-dependent manner, FIGS. 4E-4G
T3 construct: endogenous in cells; host or cells: THP1-derived macrophages (PMA-differentiated)
T3 sequence (Q9NR96 26-1032): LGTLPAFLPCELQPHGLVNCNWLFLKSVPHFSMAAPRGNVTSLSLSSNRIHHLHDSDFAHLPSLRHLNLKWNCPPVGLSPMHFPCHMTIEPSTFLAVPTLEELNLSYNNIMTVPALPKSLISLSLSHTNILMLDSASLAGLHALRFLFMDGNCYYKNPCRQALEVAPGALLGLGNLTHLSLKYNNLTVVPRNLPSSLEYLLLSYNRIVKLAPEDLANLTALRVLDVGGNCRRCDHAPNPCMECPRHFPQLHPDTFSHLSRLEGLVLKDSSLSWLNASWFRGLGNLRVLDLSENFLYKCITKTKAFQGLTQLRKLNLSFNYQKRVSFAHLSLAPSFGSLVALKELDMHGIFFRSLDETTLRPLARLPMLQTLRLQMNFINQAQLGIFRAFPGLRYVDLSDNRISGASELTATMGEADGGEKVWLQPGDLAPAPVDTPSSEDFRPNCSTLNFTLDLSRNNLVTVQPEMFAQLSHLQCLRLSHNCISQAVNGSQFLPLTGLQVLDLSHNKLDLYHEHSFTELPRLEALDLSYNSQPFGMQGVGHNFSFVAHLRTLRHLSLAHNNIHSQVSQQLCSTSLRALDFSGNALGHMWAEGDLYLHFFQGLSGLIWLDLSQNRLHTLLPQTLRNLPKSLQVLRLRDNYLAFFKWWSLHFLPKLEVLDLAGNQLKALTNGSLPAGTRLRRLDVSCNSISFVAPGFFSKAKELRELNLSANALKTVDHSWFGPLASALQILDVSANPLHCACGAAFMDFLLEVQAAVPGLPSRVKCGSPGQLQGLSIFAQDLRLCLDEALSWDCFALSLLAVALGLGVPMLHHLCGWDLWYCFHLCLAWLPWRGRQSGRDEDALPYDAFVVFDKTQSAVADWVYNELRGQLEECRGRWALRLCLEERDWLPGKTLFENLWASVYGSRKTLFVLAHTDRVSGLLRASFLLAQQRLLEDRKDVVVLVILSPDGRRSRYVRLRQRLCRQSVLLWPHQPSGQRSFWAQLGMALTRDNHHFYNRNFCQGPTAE

[1] = test system: C57BL/6 mice, IMQ-induced psoriasis; experiment: IMQ-induced psoriasis mouse model; assay type: in vivo
Description: The therapeutic efficacy of TAC5-a was evaluated in a psoriasis mouse model and a SLE mouse model. Psoriasis was induced in 6-7 week old C57BL/6 mice by topically applying 42 mg of IMQ cream (5%) to the shaved back skin of the mice for 6 consecutive days (FIG. 5A). TAC5-a was injected daily at doses of 50, 100 and 200 nmol/g and the effect thereof on severity was analyzed.
Histological analysis and immunochemical staining were performed on skin samples of mouse dorsal lesions. The sample was fixed with 4% paraformaldehyde solution, then embedded in paraffin and cut to 7 μm on a glass slide. The sections were stained with hematoxylin and eosin (H&E) and the thickness of the dermis and epidermis were measured. The thickness of skin was measured with a Leica DMi8 fluorescence microscope using a Leica LAS X Hardware Configurator (Leica Microsystems GmbH, Wetzlar, Germany). IMQ-mediated skin inflammation was evaluated by immunohistochemistry (IHC) using a primary antibody that recognizes CD68 (ab31630, 1:200 dilution) as a macrophage marker. […] The skin was stained with hematoxylin and eosin (H&E) in order to evaluate the thickness of the epidermis (yellow arrow) and dermis (green arrow) in IMQ-induced psoriasis mice and thereby to observe the histopathological changes of skin lesions in each group (FIG. 5G) Immunohistochemical analysis of skin lesions in each group was performed using a primary antibody that recognizes CD68.

- TLR1/2 (Pam3CSK4)-mediated TNF-α secretion (TLR1/2): did not block
- TLR8-mediated TNF-α or IL-6 secretion (TLR8): significantly inhibited
- TLR9-mediated TNF-α or IL-6 secretion (TLR9): significantly inhibited
Compound: Nc1cccc(COc2cccnc2N)c1 [TAC5-a, 3-((3-aminobenzyl)oxy)pyridin-2-amine]
- effect on back skin inflammation compared with methotrexate (MTX) ([1]; FIG. 5B): relatively weaker
- spleen hypertrophy ([1]; FIG. 5D): adequately prevented
- thickness of the epidermis and the dermis (H&E) ([1]; FIG. 5F): therapeutic effects similar to those of the treatment group were observed
- expression of CD68 in skin lesions (immunohistochemistry) ([1]; FIG. 5H): effectively reduced
- PASI score (psoriasis area and severity index) ([1]; fourth day of treatment, decreased from 8.0 or higher, FIG. 5C): less than 4.0
- degree of inflammation in the back skin ([1]; injected daily at 50, 100 and 200 nmol/g, FIG. 5B): reversal of the degree of inflammation was evident
